In patent US10370333B2 (Sanford Burnham Prebys Medical Discovery Institute, priority 2012, dated 2019):

The molecules below were run against TNAP (Homo sapiens (Human), UniProt P05186) (assay: TNAP (PPi) inhibition assay, pyrophosphate as substrate).
Type: biochemical
Protocol: Expression plasmids containing a secreted epitope-tagged TNAP were transfected into COS-1 cells for transient expression. The medium was replaced with Opti-MEM 24 h later and serum-free media containing secreted proteins was collected 60 hours after electroporation. The medium was dialyzed against TBS containing 1 mM MgCl2 and […] (to remove phosphate) and filtered through a […] cellulose acetate filter.
To determine the inhibition selectivity for inhibitor candidates, human TNAP, PLAP or IAP were added to microtiter plates followed by addition of the substrate pNPP (0.5 mM) and activity was measured in 1 M DEA-HCl buffer, pH 9.8 or in 1 M Tris-HCl buffer, pH 7.5, containing 1 mM MgCl2 and 20 μM ZnCl2, in the presence of potential inhibitors (0-30 μM). TNAP, PLAP and IAP activities were adjusted to an approximate λA405 nm, equivalent to 1, measured after 30 min. Residual AP activity in the presence of inhibitors was expressed as percentage of the control activity. To investigate the mechanism of inhibition, double reciprocal plots of enzyme activity (expressed as mA405 nm min−1) vs. substrate concentration were constructed, in the presence of various concentrations of added inhibitors (0-30 μM). The y-axis intercepts of the 1/v vs. 1/[S] plots, were then plotted vs. [I] to graphically extract Ki values as the x-intercept in this plot. […] Inhibitors were further tested and sorted based on their kinetic properties at pH 7.4 using PPi, the relevant natural substrate of TNAP. […] Amounts of released phosphate were measured using the Biomol Green Reagent (Biomol Research Laboratories, Inc., Plymouth Meeting, Pa.).

`COc1cc(Cl)c(Br)cc1S(=O)(=O)Nc1cccnc1` was tested. Which IC50 did it give?
The IC50 was < 0.1 µM.

With `COc1ccc(Br)cc1S(=O)(=O)Nc1cscn1` as the molecule, how does the IC50 read?
The IC50 was > 1 µM.

With `COc1ccc(OC)c(S(=O)(=O)Nc2cscn2)c1` as the molecule, how does the IC50 read?
Its IC50 is > 1 µM.

`COc1ccc(Cl)cc1S(=O)(=O)Nc1cncc(-c2ccccc2C(F)(F)F)c1` was tested. Which IC50 did it give?
The IC50 was 0.1 to 1 µM.

Which IC50 does the source give for `COc1ccc(Cl)cc1S(=O)(=O)Nc1cncc(-c2ccc(O)cc2)c1` here?
Its IC50 is < 0.1 µM.

For `COc1ccc(OC)c(S(=O)(=O)Nc2ccc(Nc3ccccc3)nc2)c1`, which IC50 is on record?
The IC50 was > 1 µM.

`O=C(O)c1cncc(NS(=O)(=O)c2cc(Cl)ccc2OC(F)(F)F)c1` was tested. Which IC50 did it give?
The IC50 was 0.1 to 1 µM.

With `COc1ccc(-c2ccccc2)cc1S(=O)(=O)Nc1cccnc1` [Example I-7, 4-Methoxy-biphenyl-3-sulfonic acid pyridin-3-ylamide] as the molecule, how does the IC50 read?
The IC50 was 0.1 to 1 µM.

Which IC50 does the source give for `COc1ccc(-c2ccsc2)cc1S(=O)(=O)Nc1cccnc1` [Example I-8, 2-Methoxy-N-pyridin-3-yl-5-thiophen-3-yl-benzenesulfonamide] here?
Its IC50 is 0.1 to 1 µM.

How did the IC50 turn out when `COc1ccc(-c2ccoc2)cc1S(=O)(=O)Nc1cccnc1` [Example I-9, 5-Furan-3-yl-2-methoxy-N-pyridin-3-yl-benzenesulfonamide] was run?
The IC50 was 0.1 to 1 µM.

With `COc1ccc(-c2ccncc2)cc1S(=O)(=O)Nc1cccnc1` [Example I-10, 2-Methoxy-5-pyridin-4-yl-N-pyridin-3-yl-benzenesulfonamide] as the molecule, how does the IC50 read?
Its IC50 is > 1 µM.

How did the IC50 turn out when `COc1ccc(S(=O)(=O)Nc2cccnc2)cc1Cl` [Example I-12, 3-Chloro-4-methoxy-N-pyridin-3-yl-benzenesulfonamide] was run?
Its IC50 is > 1 µM.

For `COc1c(Cl)cccc1S(=O)(=O)Nc1cccnc1` [Example I-13, 3-Chloro-2-methoxy-N-pyridin-3-yl-benzenesulfonamide], which IC50 is on record?
The IC50 was > 1 µM.

Which IC50 does the source give for `CNC(=O)c1ccc(OC)c(S(=O)(=O)Nc2cccnc2)c1` [Example I-16, 4-Methoxy-N-methyl-3-(pyridin-3-ylsulfamoyl)-benzamide] here?
The IC50 was > 1 µM.

With `CCNC(=O)c1ccc(OC)c(S(=O)(=O)Nc2cccnc2)c1` [Example I-17, N-Ethyl-4-methoxy-3-(pyridin-3-ylsulfamoyl)-benzamide] as the molecule, how does the IC50 read?
The IC50 was > 1 µM.

Which IC50 does the source give for `CCCNC(=O)c1ccc(OC)c(S(=O)(=O)Nc2cccnc2)c1` [Example I-18, 4-Methoxy-N-propyl-3-(pyridin-3-ylsulfamoyl)-benzamide] here?
Its IC50 is > 1 µM.

With `COc1ccc(C(=O)Nc2ccccc2)cc1S(=O)(=O)Nc1cccnc1` [Example I-19, 4-Methoxy-N-phenyl-3-(pyridin-3-ylsulfamoyl)-benzamide] as the molecule, how does the IC50 read?
The IC50 was > 1 µM.

With `COc1ccc(C(=O)NC2CCCCC2)cc1S(=O)(=O)Nc1cccnc1` [Example I-20, N-Cyclohexyl-4-methoxy-3-(pyridin-3-ylsulfamoyl)-benzamide] as the molecule, how does the IC50 read?
The IC50 was > 1 µM.

How did the IC50 turn out when `COCCNC(=O)c1ccc(OC)c(S(=O)(=O)Nc2cccnc2)c1` [Example I-21, 4-Methoxy-N-(2-methoxy-ethyl)-3-(pyridin-3-ylsulfamoyl)-benzamide] was run?
Its IC50 is > 1 µM.

`COc1ccc(C(=O)N2CCN(C)CC2)cc1S(=O)(=O)Nc1cccnc1` [Example I-22, 2-Methoxy-5-(4-methyl-piperazine-1-carbonyl)-N-pyridin-3-yl-benzenesulfonamide] was tested. Which IC50 did it give?
The IC50 was > 1 µM.

Which IC50 does the source give for `COc1ccc(C(=O)N2CCOCC2)cc1S(=O)(=O)Nc1cccnc1` [Example I-23, 2-Methoxy-5-(morpholine-4-carbonyl)-N-pyridin-3-yl-benzenesulfonamide] here?
The IC50 was > 1 µM.

For `COc1cc(C)ccc1S(=O)(=O)Nc1cnc2ccccc2c1` [Example II-3, 2-Methoxy-4-methyl-N-quinolin-3-yl-benzenesulfonamide], which IC50 is on record?
Its IC50 is < 0.1 µM.

`COc1ccc(S(=O)(=O)Nc2cnc3ccccc3c2)c(OC)c1` [Example II-4, 2,4-Dimethoxy-N-quinolin-3-yl-benzenesulfonamide] was tested. Which IC50 did it give?
The IC50 was > 1 µM.

Which IC50 does the source give for `COc1ccc(-c2ccccc2)cc1S(=O)(=O)Nc1cnc2ccccc2c1` [Example II-6, 4-Methoxy-biphenyl-3-sulfonic acid quinolin-3-ylamide] here?
Its IC50 is 0.1 to 1 µM.

How did the IC50 turn out when `COc1ccc(-c2ccoc2)cc1S(=O)(=O)Nc1cnc2ccccc2c1` [Example II-7, 5-Furan-3-yl-2-methoxy-N-quinolin-3-yl-benzenesulfonamide] was run?
Its IC50 is 0.1 to 1 µM.

Which IC50 does the source give for `COc1ccc(-c2ccsc2)cc1S(=O)(=O)Nc1cnc2ccccc2c1` [Example II-8, 2-Methoxy-N-quinolin-3-yl-5-thiophen-3-yl-benzenesulfonamide] here?
Its IC50 is > 1 µM.

How did the IC50 turn out when `COc1ccc(-c2ccncc2)cc1S(=O)(=O)Nc1cnc2ccccc2c1` [Example II-9, 2-Methoxy-5-pyridin-4-yl-N-quinolin-3-yl-benzenesulfonamide] was run?
Its IC50 is 0.1 to 1 µM.

How did the IC50 turn out when `COc1cc(Cl)ccc1S(=O)(=O)Nc1cnc2ccccc2c1` [Example II-10, 4-Chloro-2-methoxy-N-quinolin-3-yl-benzenesulfonamide] was run?
Its IC50 is < 0.1 µM.

With `COc1ccc(S(=O)(=O)Nc2cnc3ccccc3c2)cc1Cl` [Example II-11, 3-Chloro-4-methoxy-N-quinolin-3-yl-benzenesulfonamide] as the molecule, how does the IC50 read?
Its IC50 is > 1 µM.

`COc1c(Cl)cccc1S(=O)(=O)Nc1cnc2ccccc2c1` [Example II-12, 3-Chloro-2-methoxy-N-quinolin-3-yl-benzenesulfonamide] was tested. Which IC50 did it give?
Its IC50 is > 1 µM.

How did the IC50 turn out when `COC(=O)c1ccc(OC)c(S(=O)(=O)Nc2cnc3ccccc3c2)c1` [Example II-13, Methyl 4-methoxy-3-(N-(quinolin-3-yl)sulfamoyl)benzoate] was run?
The IC50 was < 0.1 µM.

`COc1ccc(C(N)=O)cc1S(=O)(=O)Nc1cnc2ccccc2c1` [Example II-14, 4-Methoxy-3-(quinolin-3-ylsulfamoyl)-benzamide] was tested. Which IC50 did it give?
Its IC50 is 0.1 to 1 µM.

Which IC50 does the source give for `CNC(=O)c1ccc(OC)c(S(=O)(=O)Nc2cnc3ccccc3c2)c1` [Example II-15, 4-Methoxy-N-methyl-3-(quinolin-3-ylsulfamoyl)-benzamide] here?
The IC50 was < 0.1 µM.

With `CCNC(=O)c1ccc(OC)c(S(=O)(=O)Nc2cnc3ccccc3c2)c1` [Example II-16, N-Ethyl-4-methoxy-3-(quinolin-3-ylsulfamoyl)-benzamide] as the molecule, how does the IC50 read?
The IC50 was 0.1 to 1 µM.

Which IC50 does the source give for `CCCNC(=O)c1ccc(OC)c(S(=O)(=O)Nc2cnc3ccccc3c2)c1` [Example II-17, 4-Methoxy-N-propyl-3-(quinolin-3-ylsulfamoyl)-benzamide] here?
Its IC50 is 0.1 to 1 µM.

`COc1ccc(C(=O)Nc2ccccc2)cc1S(=O)(=O)Nc1cnc2ccccc2c1` [Example II-18, 4-Methoxy-N-phenyl-3-(quinolin-3-ylsulfamoyl)-benzamide] was tested. Which IC50 did it give?
The IC50 was > 1 µM.

With `COc1ccc(C(=O)NC2CCCCC2)cc1S(=O)(=O)Nc1cnc2ccccc2c1` [Example II-19, N-Cyclohexyl-4-methoxy-3-(quinolin-3-ylsulfamoyl)-benzamide] as the molecule, how does the IC50 read?
Its IC50 is > 1 µM.

For `COCCNC(=O)c1ccc(OC)c(S(=O)(=O)Nc2cnc3ccccc3c2)c1` [Example II-20, 4-Methoxy-N-(2-methoxy-ethyl)-3-(quinolin-3-ylsulfamoyl)-benzamide], which IC50 is on record?
Its IC50 is 0.1 to 1 µM.

With `COc1ccc(C(=O)NCCN(C)C)cc1S(=O)(=O)Nc1cnc2ccccc2c1` [Example II-21, N-(2-Dimethylamino-ethyl)-4-methoxy-3-(quinolin-3-ylsulfamoyl)-benzamide] as the molecule, how does the IC50 read?
Its IC50 is 0.1 to 1 µM.

For `COc1ccc(C(=O)N2CCN(C)CC2)cc1S(=O)(=O)Nc1cnc2ccccc2c1` [Example II-22, 2-Methoxy-5-(4-methyl-piperazine-1-carbonyl)-N-quinolin-3-yl-benzenesulfonamide], which IC50 is on record?
The IC50 was > 1 µM.

Which IC50 does the source give for `COc1ccc(C(=O)N2CCOCC2)cc1S(=O)(=O)Nc1cnc2ccccc2c1` [Example II-23, 2-Methoxy-5-(morpholine-4-carbonyl)-N-quinolin-3-yl-benzenesulfonamide] here?
The IC50 was 0.1 to 1 µM.

For `COc1ccc(-c2cncc(NS(=O)(=O)c3cc(OC)ccc3OC)c2)cc1` [Example III-1], which IC50 is on record?
Its IC50 is < 0.1 µM.

`COc1ccc(-c2cncc(NS(=O)(=O)c3cc(Br)ccc3OC)c2)cc1` [Example III-2, 5-Bromo-2-methoxy-N-[5-(4-methoxy-phenyl)-pyridin-3-yl]-benzenesulfonamide] was tested. Which IC50 did it give?
Its IC50 is 0.1 to 1 µM.

With `COc1ccc(OC)c(S(=O)(=O)Nc2cncc(-c3ccc(OCc4ccccc4)cc3)c2)c1` [Example III-4, N-(5-(4-(Benzyloxy)phenyl)pyridin-3-yl)-2,5-dimethoxybenzenesulfonamide] as the molecule, how does the IC50 read?
Its IC50 is 0.1 to 1 µM.

How did the IC50 turn out when `COc1ccc(Br)cc1S(=O)(=O)Nc1cncc(-c2ccc(OCc3ccccc3)cc2)c1` [Example III-5, N-(5-(4-(Benzyloxy)phenyl)pyridin-3-yl)-5-bromo-2-methoxybenzenesulfonamide] was run?
The IC50 was 0.1 to 1 µM.

Which IC50 does the source give for `COc1ccc(Cl)cc1S(=O)(=O)Nc1cncc(-c2ccc(OCc3ccccc3)cc2)c1` [Example III-6, N-(5-(4-(benzyloxy)phenyl)pyridin-3-yl)-5-chloro-2-methoxybenzenesulfonamide] here?
The IC50 was 0.1 to 1 µM.

Which IC50 does the source give for `COc1ccc(OC)c(S(=O)(=O)Nc2cncc(-c3ccc(O)cc3)c2)c1` [Example III-7, N-[5-(4-Hydroxy-phenyl)-pyridin-3-yl]-2,5-dimethoxy-benzenesulfonamide] here?
The IC50 was < 0.1 µM.

With `COc1ccc(Br)cc1S(=O)(=O)Nc1cncc(-c2ccc(O)cc2)c1` [Example III-8, 5-Bromo-N-[5-(4-hydroxy-phenyl)-pyridin-3-yl]-2-methoxy-benzenesulfonamide] as the molecule, how does the IC50 read?
The IC50 was < 0.1 µM.
